Here are results for 35 compounds from patent US4879385A, “Substituted hydroxyalkyl-azoles and their use as antimycotics” (Bayer Aktiengesellschaft, priority 1982, dated 1989).

Test [1] deals with dermatophytes, moulds and yeasts. In words: Antimycotic in vitro activity, series dilution test (overall comparison). The format is cell-based. As to conditions: 20° C., 24 to 96 hours. How it is done: The in vitro tests were carried out in series dilution test with germ inocula of an average of 5×10^4 germs/ml of substrate. The nutrient medium was (a) for dermatophytes and moulds: Sabourand's milieu d'epreuve and (b) for yeasts: meat extract/glucose broth. The incubation temperature was 20° C. and the duration of incubation was 24 to 96 hours in the case of yeasts, and 96 hours in the case of dermatophytes and moulds.

A further test relates to Candida. Briefly: Antimycotic in vivo activity (oral) in candidosis of mice. As to conditions: mice SPF-CF, i.v. Candida; oral 25-100 mg/kg 1 h before and 7 h after infection. How it is done:
Mice of the SPF-CF type were infected intravenously with 1-2×10^6logarithmically growing Candida cells, which were suspended in physiological sodium chloride solution. The animals were treated orally one hour before and seven hours after the infection, with, in each case, 25-100 mg/kg of body weight of the formulations.
Untreated animals died 3 to 6 days after infection. The survival rate on the 6th day after infection was about 5% in the case of untreated control animals.

A further test deals with fungi (antimycotic). As to conditions: prior art DE-OS 2,623,129 and DE-OS 2,851,086; cited from earlier work.

For the compound `CC(C)(Cc1ccc(F)cc1)C(O)(Cn1cncn1)c1ccccc1` (stereo not drawn) [Example 15], the “antimycotic action in vitro compared with compounds (A), (B) and (C)” value in test [1] is “better antimycotic action than the compounds (A), (B) and (C)”. In the case of `CCC(C)(Oc1ccc(Cl)cc1)C(O)(Cn1cncn1)c1ccc(Cl)cc1` (stereo not drawn) [Example 27], in the test on Candida, the “action in vivo compared with compounds (A), (B) and (C)” value (shortened to “action in vivo compared with compounds”) was “better action than the compounds (A), (B) and (C)”. Regarding `CC(C)(Sc1ccc(Cl)cc1)C(O)(Cn1ccnc1)c1ccc(Cl)cc1` (stereo not drawn) [Example 16], in test [1], the “antimycotic action in vitro compared with compounds (A), (B) and (C)” value is “better antimycotic action than the compounds (A), (B) and (C)”. As to `CCC(C)(Oc1ccc(F)cc1)C(O)(Cn1cncn1)c1ccc(F)cc1` (stereo not drawn) [Example 34], the “action in vivo compared with compounds” value in the test with Candida was “better action than the compounds (A), (B) and (C)”. As for `OC(Cc1ccccc1)(Cn1cncn1)c1ccc(-c2ccccc2)cc1` (stereo not drawn) [(C), 2-(4-biphenyl)-2 hydroxy-1-phenyl-3-(1,2,4-triazol-1-yl)-propane], the antimycotic properties entry in the test on fungi (antimycotic) is reported as “good antimycotic properties”. Turning to `CC(C)(Cc1ccc(F)cc1)C(O)(Cn1cncn1)c1ccc(Cl)cc1` (stereo not drawn) [Example 11], the “antimycotic action in vitro compared with compounds (A), (B) and (C)” value in test [1] was “better antimycotic action than the compounds (A), (B) and (C)”. For the same compound, the “action in vivo compared with compounds” value with Candida is “better action than the compounds (A), (B) and (C)”. For `CC(C)(Oc1ccc(F)cc1)C(O)(Cn1cncn1)c1ccc(F)cc1` (stereo not drawn) [Example 30], the “action in vivo compared with compounds” value in the test with Candida was “better action than the compounds (A), (B) and (C)”. As for `CC(C)(c1ccc(Cl)cc1)C(O)(Cn1cncn1)c1ccc(Cl)cc1` (stereo not drawn) [Example 5], the “antimycotic action in vitro compared with compounds (A), (B) and (C)” value in test [1] was “better antimycotic action than the compounds (A), (B) and (C)”. `CCC(C)(Oc1ccc(Cl)cc1)C(O)(Cn1cncn1)c1ccc(F)cc1` (stereo not drawn) [Example 35]: the “antimycotic action in vitro compared with compounds (A), (B) and (C)” value in test [1] is “better antimycotic action than the compounds (A), (B) and (C)”. Also, the “action in vivo compared with compounds” value in the test with Candida is “better action than the compounds (A), (B) and (C)”. Regarding `CC(C)(Cc1ccc(F)cc1)C(O)(Cn1ccnc1)c1ccc(Cl)cc1` (stereo not drawn) [Example 10], the “antimycotic action in vitro compared with compounds (A), (B) and (C)” value in test [1] is “better antimycotic action than the compounds (A), (B) and (C)”. Turning to `CC(C)(Cc1ccccc1)C(O)(Cn1cncn1)c1ccc(F)cc1` (stereo not drawn) [Example 6], in test [1], the “antimycotic action in vitro compared with compounds (A), (B) and (C)” value was “better antimycotic action than the compounds (A), (B) and (C)”. Turning to `CC(C)(Oc1ccc(Cl)cc1Cl)C(O)(Cn1ccnc1)c1ccc(Cl)cc1` (stereo not drawn) [Example 17], the “action in vivo compared with compounds” value in the test with Candida was “better action than the compounds (A), (B) and (C)”. For `CC(C)(Oc1ccccc1Cl)C(O)(Cn1cncn1)c1ccc(Cl)cc1` (stereo not drawn) [Example 19], the “antimycotic action in vitro compared with compounds (A), (B) and (C)” value in test [1] is “better antimycotic action than the compounds (A), (B) and (C)”. The same measure, in the same setting: the entry for `CC(C)(Sc1ccc(Cl)cc1)C(O)(Cn1cncn1)c1ccc(Cl)cc1` (stereo not drawn) [Example 14] is “better antimycotic action than the compounds (A), (B) and (C)”.

With `CC(C)(Cc1ccc(Cl)cc1)C(O)(Cn1ccnc1)c1ccc(Cl)cc1` (stereo not drawn) [Example 1, 2,4-bis(4-chlorophenyl)-3,3-dimethyl-1-(imidazol-1-yl)-butan-2-ol], in test [1], the “antimycotic action in vitro compared with compounds (A), (B) and (C)” value is “better antimycotic action than the compounds (A), (B) and (C)”. In addition, the “action in vivo compared with compounds” value with Candida is “better action than the compounds (A), (B) and (C)”.

Consider `OC(Cc1ccc(Cl)cc1)(Cn1ccnc1)c1ccc(Cl)cc1` (stereo not drawn) [(A), 1,2-bis(4-chlorophenyl)-2-hydroxy-3-(imidazol-1-yl)-propane], for which the antimycotic properties result in the test with fungi (antimycotic) is on record as “good antimycotic properties”.

As to `CC(C)(Cc1ccc(Cl)cc1)C(O)(Cn1cncn1)c1ccc(F)cc1` (stereo not drawn) [Example 9], the “antimycotic action in vitro compared with compounds (A), (B) and (C)” value in test [1] is “better antimycotic action than the compounds (A), (B) and (C)”. In addition, the “action in vivo compared with compounds” value in the test with Candida is “better action than the compounds (A), (B) and (C)”. On to `CC(C)(Cc1ccc(Cl)cc1)C(O)(Cn1cncn1)c1ccc(Cl)cc1` (stereo not drawn) [Example 4], for which, in test [1], the “antimycotic action in vitro compared with compounds (A), (B) and (C)” value was “better antimycotic action than the compounds (A), (B) and (C)”. Moreover, in the test with Candida, the “action in vivo compared with compounds” value was “better action than the compounds (A), (B) and (C)”. `CC(C)(Oc1ccc(Cl)cc1)C(O)(Cn1cncn1)c1ccc(F)cc1` (stereo not drawn) [Example 29]: the “antimycotic action in vitro compared with compounds (A), (B) and (C)” value in test [1] was “better antimycotic action than the compounds (A), (B) and (C)”. For the same compound, in the test on Candida, the “action in vivo compared with compounds” value was “better action than the compounds (A), (B) and (C)”.

`OC(Cn1ccnc1)(c1cccc(Cl)c1)c1cccc(Cl)c1` [(B), 1,1-bis(3-chlorophenyl)-1-hydroxy-2-(imidazol-1-yl)-ethane]: the antimycotic properties entry in the test on fungi (antimycotic) is “good antimycotic properties”. As to `CC(C)(Cc1ccc(Cl)cc1)C(O)(Cn1ccnc1)c1ccc(F)cc1` (stereo not drawn) [Example 8], in test [1], the “antimycotic action in vitro compared with compounds (A), (B) and (C)” value is “better antimycotic action than the compounds (A), (B) and (C)”. For the same compound, the “action in vivo compared with compounds” value in the test on Candida was “better action than the compounds (A), (B) and (C)”. Turning to `CC(C)(Oc1ccccc1)C(O)(Cn1ccnc1)c1ccc(Cl)cc1` (stereo not drawn) [Example 23], in test [1], the “antimycotic action in vitro compared with compounds (A), (B) and (C)” value is “better antimycotic action than the compounds (A), (B) and (C)”.

For `CC(C)(Oc1ccc(F)cc1)C(O)(Cn1ccnc1)c1ccc(F)cc1` (stereo not drawn) [Example 32], the “action in vivo compared with compounds” value in the test with Candida is “better action than the compounds (A), (B) and (C)”. In the case of `CC(C)(c1ccc(Cl)cc1)C(O)(Cn1ccnc1)c1ccc(Cl)cc1` (stereo not drawn) [Example 3], in test [1], the “antimycotic action in vitro compared with compounds (A), (B) and (C)” value was “better antimycotic action than the compounds (A), (B) and (C)”. On the same count and under the same terms, the entry for `Cc1cc(Cl)ccc1OC(C)(C)C(O)(Cn1cncn1)c1ccc(Cl)cc1` (stereo not drawn) [Example 21] is “better antimycotic action than the compounds (A), (B) and (C)”. As for `CC(C)(Oc1ccc(Cl)cc1Cl)C(O)(Cn1cncn1)c1ccc(Cl)cc1` (stereo not drawn) [Example 18], in test [1], the “antimycotic action in vitro compared with compounds (A), (B) and (C)” value is “better antimycotic action than the compounds (A), (B) and (C)”. Moreover, in the test on Candida, the “action in vivo compared with compounds” value is “better action than the compounds (A), (B) and (C)”. Take `CC(C)(Oc1ccc(Cl)cc1)C(O)(Cn1ccnc1)c1ccc(F)cc1` (stereo not drawn) [Example 31]: in the test on Candida, the “action in vivo compared with compounds” value was “better action than the compounds (A), (B) and (C)”. On to `CC(C)(Oc1ccc(Cl)cc1)C(O)(Cn1cncn1)c1ccc(Cl)cc1.Cl` (stereo not drawn) [Example 2, 3-(4-chlorophenoxy)-2-(4-chlorophenyl)-3-methyl-1-(1,2,4-triazol-1-yl)-butan-2-ol hydrochloride], for which the “antimycotic action in vitro compared with compounds (A), (B) and (C)” value in test [1] is “better antimycotic action than the compounds (A), (B) and (C)”.

As for `CC(C)(Oc1ccccc1Cl)C(O)(Cn1ccnc1)c1ccc(Cl)cc1` (stereo not drawn) [Example 20], the “antimycotic action in vitro compared with compounds (A), (B) and (C)” value in test [1] was “better antimycotic action than the compounds (A), (B) and (C)”. For the compound `CC(C)(Cc1ccc(F)cc1)C(O)(Cn1cncn1)c1ccc(F)cc1` (stereo not drawn) [Example 28], in test [1], the “antimycotic action in vitro compared with compounds (A), (B) and (C)” value was “better antimycotic action than the compounds (A), (B) and (C)”. Also, the “action in vivo compared with compounds” value in the test on Candida was “better action than the compounds (A), (B) and (C)”. As for `CC(C)(Cc1ccc(Cl)cc1Cl)C(O)(Cn1ccnc1)c1ccc(F)cc1` (stereo not drawn) [Example 12], in test [1], the “antimycotic action in vitro compared with compounds (A), (B) and (C)” value was “better antimycotic action than the compounds (A), (B) and (C)”. On to `CCC(C)(COc1ccc(Cl)cc1)C(O)(Cn1cncn1)c1ccc(Cl)cc1` (stereo not drawn) [Example 26], for which, in test [1], the “antimycotic action in vitro compared with compounds (A), (B) and (C)” value was “better antimycotic action than the compounds (A), (B) and (C)”. For the same compound, the “action in vivo compared with compounds” value with Candida was “better action than the compounds (A), (B) and (C)”. Regarding `CC(C)(Oc1ccccc1)C(O)(Cn1cncn1)c1ccc(Cl)cc1` (stereo not drawn) [Example 22], the “antimycotic action in vitro compared with compounds (A), (B) and (C)” value in test [1] was “better antimycotic action than the compounds (A), (B) and (C)”.

`CC(C)(Cc1ccc(F)cc1)C(O)(Cn1ccnc1)c1ccc(F)cc1` (stereo not drawn) [Example 33]: the “action in vivo compared with compounds” value with Candida is “better action than the compounds (A), (B) and (C)”. Take `Cc1ccc(C(C)(C)C(O)(Cn2ccnc2)c2ccc(Cl)cc2)cc1` (stereo not drawn) [Example 25]: the “antimycotic action in vitro compared with compounds (A), (B) and (C)” value in test [1] is “better antimycotic action than the compounds (A), (B) and (C)”.
